Measurements published in PMC3188562, “Hyperforin Inhibits Akt1 Kinase Activity and Promotes Caspase-Mediated Apoptosis Involving Bad and Noxa Activation in Human Myeloid Tumor Cells” (PLoS ONE, 2011).

Molecular target: Akt1 (Homo sapiens, UniProt P31749)
Sequence (P31749 whole entry): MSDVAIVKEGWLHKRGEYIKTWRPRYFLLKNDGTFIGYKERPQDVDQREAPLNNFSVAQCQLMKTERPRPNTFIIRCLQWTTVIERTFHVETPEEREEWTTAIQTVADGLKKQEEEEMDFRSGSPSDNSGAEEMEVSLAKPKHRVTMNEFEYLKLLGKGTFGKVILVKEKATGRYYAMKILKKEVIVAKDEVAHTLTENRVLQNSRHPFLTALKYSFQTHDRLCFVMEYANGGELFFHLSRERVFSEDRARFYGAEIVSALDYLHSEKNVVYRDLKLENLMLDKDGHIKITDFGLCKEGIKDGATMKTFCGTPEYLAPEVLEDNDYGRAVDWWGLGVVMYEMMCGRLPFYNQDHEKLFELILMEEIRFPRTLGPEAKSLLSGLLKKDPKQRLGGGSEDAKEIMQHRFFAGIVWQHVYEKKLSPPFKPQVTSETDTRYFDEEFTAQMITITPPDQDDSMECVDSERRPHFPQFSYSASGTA

For `CC(C)=CCCC1(C)C(CC=C(C)C)CC2(CC=C(C)C)C(=O)C(CC=C(C)C)=C(O)C1(C(=O)C(C)C)C2=O` (stereo not drawn) [HF, 5-hydroxy-6R-methyl-1R,3,7S-tris(3-methyl-2-butenyl)-5S-(2-methyl-1-oxopropyl)-6R-(4-methyl-3-pentenyl)-bicyclo[3.3.1]non-3-ene-2,9 dione], the IC50 was 2500 nM.
